Assay results from paper PMC7177633, “Effective Cellular Transport of Ortho-Halogenated Sulfonamide Derivatives of Metformin Is Related to Improved Antiproliferative Activity and Apoptosis Induction in MCF-7 Cells” (International Journal of Molecular Sciences, 2020).

Tested on: MDA-MB-231 cells
Assay: Cell cycle analysis (PI, flow cytometry), MDA-MB-231
Type: cell-based, human
Details: MDA-MB-231, 24 h, 2600 µmol/L (IC50 value)
Experimental: MCF-7 and MDA-MB-231 cells were seeded in 6-well plates at a density of 2 × 10^5 cells per well and cultured for 24 h under standard conditions (with 2 mL of the medium). Next, cells were exposed to the tested compounds at concentrations corresponding to IC50. After 24 h of treatment, control and treated cells were then collected (washed with cold PBS and treated with accutase), transferred to Eppendorf tubes and centrifuged (1100 rpm, 5 min, 5 °C). The supernatant was discarded, cold PBS was added (1 mL) and the cells were centrifuged (1200 rpm, 5 min). The solution was removed, and the cells were fixed in cold 70% ethanol at 4 °C. Prior to the analysis, the cells were centrifuged (3600 rpm, 5 min) and washed twice with PBS. The solution was discarded, the pellets were suspended in 200 µL of PBS and incubated with ribonuclease at 37 °C (25 µL, final concentration in a sample was 100 µg/mL) for 30 min and stained with propidine iodide (12.5 µL, final concentration in a sample was 50 µg/mL) in darkness at room temperature for additional 20 min. The final volume of the sample was 250 µL.
DNA content and the number of cells in individual cell cycle phases was measured by flow cytometry (CytoFlex, blue laser, 480 nm, Beckman-Coulter, Indianapolis, IN, USA). Cells (20,000) were analyzed from each sample. The percentage of cells in each cell cycle phase was calculated from live cells that were expressed as 100%. The data are presented as the mean ± SD of three independent experiments. The coefficients of variation for the assay were established (CV = 0.37–11.78%, depending on the cell population).

CN(C)C(=N)N=C(N)NS(=O)(=O)c1ccccc1F [Compound 7]
G0/G1: 64.31 ± 1.13 %
G2/M: 12.24 ± 0.10 %
S: 19.99 ± 0.97 %
Sub G0/G1: 3.41 ± 0.08 %
